In ChEMBL document CHEMBL1201862, “PubChem BioAssay data set” (2004):
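1) Cells in 96-well plates. 2) Compound, 48 h, 5 concentrations. 3) Linear interpolation between surrounding doses. 4) Unreached endpoint = highest concentration. The concentration for 50% growth inhibition is given as GI50.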 Active and inactive are the calls of the source. No stated cut-off is given here; in the data, active = GI50 up to about 1.1 µM and inactive = higher.

How the values were obtained:
Test in all cases: NCI anticancer screen, dose series, 48 h
[1] = tested on: IGROV-1
[2] = tested on: T47D
[3] = tested on: A549
[4] = tested on: NCI/ADR-RES
[5] = tested on: SF-268
[6] = tested on: NCI-H460
[7] = tested on: SNB-75
[8] = tested on: CCRF-CEM
[9] = tested on: RXF 393
[10] = tested on: MDA-MB-435
[11] = tested on: NCI-H226
[12] = tested on: HOP-62
[13] = tested on: OVCAR-3
[14] = tested on: Malme-3M
[15] = tested on: MDA-N
[16] = tested on: 786-0
[17] = tested on: MDA-MB-231
[18] = tested on: NCI-H23
[19] = tested on: TK-10
[20] = tested on: MOLT-4

Measured: GI50

O=C(/C=C/c1ccccc1)CCN1CCCCC1
inactive: [1] 43.1 µM | [2] 35.5 µM | [3] 54.1 µM | [4] 38.8 µM | [5] 42.5 µM | [6] 40.7 µM | [7] 36.8 µM | [8] 39.4 µM | [9] 24.2 µM | [10] 28.2 µM | [11] > 100 µM | [12] > 100 µM | [13] 31.2 µM | [14] > 100 µM | [15] 24.9 µM | [16] 20.5 µM | [17] 26 µM | [18] 24.8 µM | [19] 51.3 µM | [20] 24.1 µM

COc1ccc(/N=N/C(=N/NC(=O)c2ccccc2)c2ccc(N(CCC#N)CCC#N)cc2C)cc1
inactive: [1] 42.8 µM | [2] 53.7 µM | [3] 38.2 µM | [4] > 100 µM | [5] 58.2 µM | [6] 23.1 µM | [7] 43 µM | [8] 36.7 µM | [9] 34.8 µM | [10] 5.43 µM | [11] 43.8 µM | [12] 51.6 µM | [13] 17.7 µM | [14] 48 µM | [15] 4.7 µM | [16] 47.5 µM | [17] 50.9 µM | [18] 25.5 µM | [19] > 100 µM | [20] 49.5 µM

O=C(OCCN=c1c2ccccc2ccc2ccccc12)c1ccc([N+](=O)[O-])cc1
inactive: [1] > 100 µM | [2] > 100 µM | [3] > 100 µM | [4] > 100 µM | [5] > 100 µM | [6] > 100 µM | [7] > 100 µM | [8] > 100 µM | [9] > 100 µM | [10] > 100 µM | [11] > 100 µM | [12] > 100 µM | [13] > 100 µM | [14] > 100 µM | [15] > 100 µM | [16] > 100 µM | [17] > 100 µM | [18] > 100 µM | [19] > 100 µM | [20] > 100 µM

CSCC[C@H](NC(=O)[C@H](CC(C)C)NC(=O)[C@@H](Cc1ccccc1)NC(=O)CNC(=O)[C@@H](NC(=O)[C@H](C)NC(=O)[C@H](Cc1c[nH]c2ccccc12)NC(=O)[C@H](CCC(N)=O)NC(=O)[C@H](N)CC(N)=O)C(C)C)C(N)=O
inactive: [1] > 12.5 µM | [2] > 12.5 µM | [3] > 12.5 µM | [4] > 12.5 µM | [5] > 12.5 µM | [6] > 12.5 µM | [7] > 12.5 µM | [8] > 12.5 µM | [9] > 12.5 µM | [10] > 12.5 µM | [11] > 12.5 µM | [12] > 12.5 µM | [13] > 12.5 µM | [14] > 12.5 µM | [15] > 12.5 µM | [16] > 12.5 µM | [17] > 12.5 µM | [18] > 12.5 µM | [19] > 12.5 µM | [20] > 12.5 µM

COc1cc(/C=C2/CCCc3ccccc3C2=O)cc(OC)c1OC
inactive: [1] 28.9 µM | [2] 5.92 µM | [3] 27 µM | [4] 9.2 µM | [5] 14.7 µM | [6] 20.8 µM | [7] 12.4 µM | [8] 4.19 µM | [9] 28.9 µM | [10] 7.85 µM | [11] 9.62 µM | [12] 24.2 µM | [13] 19.2 µM | [14] 12.7 µM | [15] 9.53 µM | [16] 18.3 µM | [17] 15.6 µM | [18] 18.4 µM | [19] 22.5 µM | [20] 3.46 µM

COc1c(Cl)cc(NC(=S)C#N)cc1Cl
inactive: [1] 27.1 µM | [2] 12.6 µM | [3] 23.4 µM | [4] 22.1 µM | [5] 31.2 µM | [6] 23.9 µM | [7] 22.5 µM | [8] > 53.8 µM | [9] 27.3 µM | [10] 25 µM | [11] 22.5 µM | [12] 24.5 µM | [13] 20.8 µM | [14] 20.6 µM | [15] 25.5 µM | [16] 28.3 µM | [17] 17 µM | [18] 19.3 µM | [19] 33.8 µM | [20] 32.9 µM

CC(C)=CCc1c2c(c3occ(-c4ccc(O)cc4)c(=O)c3c1O)CC(C(C)(C)O)O2 (stereo not given) [SENEGALENSIN]
inactive: [1] 2.8 µM | [2] 10.3 µM | [3] 13 µM | [4] 15.7 µM | [5] 26.5 µM | [6] 12.5 µM | [7] 17.8 µM | [8] 17.5 µM | [9] 13.6 µM | [10] 16.6 µM | [11] 20.3 µM | [12] 18.7 µM | [13] 14.4 µM | [14] 21.3 µM | [15] 21.4 µM | [16] 16.8 µM | [17] 14.4 µM | [18] 18.7 µM | [19] 16.5 µM | [20] 11.7 µM
